Three compounds from paper PMC10979476, “Molecular Deformation Is a Key Factor in Screening Aggregation Inhibitor for Intrinsically Disordered Protein Tau” (ACS Central Science, 2024) can be followed below.

The subject of one data set is SK-N-SH cells. The experiment in a line: CCK-8 cell survival assay. Format: cell-based, human. To be noted: 24 h; for cytotoxicity (in words): different concentrations, SK-N-SH cells. The procedure: After the above-mentioned systematic study of SAR at the molecular level, we wondered whether these inhibitory effects can be reproduced in the actual biological system, laying the foundation for the discovery of drug lead compounds. Therefore, the cytotoxicity and inhibitory effects of these synthetic compounds were evaluated by human neuroblastoma SK-N-SH cells. […] The cell viability of SK-N-SH was assessed using a cell counting kit-8 (CCK-8) assay.[48] It could be seen that the cell survival rate was still higher than 70% when the concentration of IPP1 reached 30 μM. […]
11. In Vitro Cellular Uptake and Cell Cytotoxicity.
Cell viability was assessed using Cell Counting Kit-8 (CCK-8) assay following the manufacturer’s instructions. SK-N-SH cells were seeded at a density of 2.0 × 10^4 cells per well in a 96-well plate and incubated for 24 h to adhere in a humidified chamber. Then, the cells were treated with various concentrations of compounds IPP1~IPP4 for 24 h. After that, the culture supernatants were removed, and 90 μL of medium and 10 μL of CCK-8 solution were then added. After further incubation for 3 h at 37 °C, the absorbance was measured at 450 nm using Microplate Reader 581 (SpectraMax iD3). Six replicates were used in each group.
12. In Vitro Evaluation of Inhibitory Effects of Inhibitor on Tau Aggregation In SK-N-SH Cell.
The effect of inhibitors on the formation of aggregate tau in SK-N-SH was tested by using the previously reported method15. First, SK-N-SH was grown on glass coverslips in 12-well plate at a […]
(In general: Formazan colour is commonly taken as a measure of viable cells.)

The target in the next data set is T1, tau hexapeptide VQIVYK (Homo sapiens, UniProt P10636).
T1 construct: 306VQIVYK311(15 μM), ThS, VQIVYK+heparin
The experiment in a line: Heparin-induced aggregation of tau hexapeptide VQIVYK, fluorescence assay. To be noted: VQIVYK 15 μM, Figure S15. Type of data set: biochemical. The source says:
The carbonyl group in five-membered ring A in IPP1 forms a hydrogen bond with the amino group on glutamine (GLN307), valine (VAL309), and tyrosine (TYR310). The nitrogen atom in pyridine ring C in IPP1 also forms a hydrogen bond with the amino group of isoleucine (ILE308). Pyridine ring C on IPP1 forms π–π stacking with the benzene ring on TYR310. The five-membered ring A in IPP1 also forms hydrophobic contacts with glycine (GLY304), VAL306, and VAL309, which further increases the interaction between the molecule IPP1 and tau. […] Visually, IPP1 is like a molecular clip that firmly holds the key region, preventing the peptide from freely curling/folding and increasing the possibility to inhibit aggregation. […] As a result, the effective interactions between these compounds and tau peptide chains are much less than those of IPP1. […] To verify the docking results, we directly applied IPP1 to the aggregation of tau hexapeptide VQIVYK (Figure S15). […] The positive experimental results of IPP1 inhibition on tau hexapeptide further confirmed the reliability of our theoretical speculation on the target segment. […]
17. The fluorescence spectra of peptide fragments systems in the presence or absence of IPP1
Figure S15. The fluorescence spectra of peptide fragments systems containing […]

Each structure is given as a SMILES string.

Regarding `O=C1Nc2cc(-c3ccc(N4CCCC4)nc3)ccc2C1=O` [IPP3, 6-(6-(pyrrolidin-1-yl)pyridin-3-yl)indoline-2,3-dione], in the data set with SK-N-SH cells, the “cytotoxicity (in words)” value is given as “toxicity is not negligible”.
As for `O=C1Nc2cccc(-c3ccc(N4CCCC4)nc3)c2C1=O` [IPP1, 4-(6-(pyrrolidin-1-yl)pyridin-3-yl)indoline-2,3-dione], in the data set with SK-N-SH cells (30 μM, tau-infected SK-N-SH cells), the cell survival rate result is “higher than 70%”. Also, the “cytotoxicity (in words)” value in the data set with SK-N-SH cells is listed as “relatively low cytotoxicity”. For the same compound, the “aggregation of tau hexapeptide induced by heparin” value on tau hexapeptide VQIVYK is “significantly reduced the aggregation of tau hexapeptide”.
With `O=C1Nc2ccc(-c3ccc(N4CCCC4)nc3)cc2C1=O` [IPP2, 5-(6-(pyrrolidin-1-yl)pyridin-3-yl)indoline-2,3-dione], in the data set on SK-N-SH cells, the “cytotoxicity (in words)” value is given as “lowest cytotoxicity”.
